Measured values published in US7271261B2, “Substituted benzimidazoles and imidazo-[4,5]-pyridines” (Ortho-McNeil Pharmaceutical, Inc., priority 2001, dated 2007).

What was measured:
[1] = tested on: cells from an established tumor line; assay: Effect of Cds1 inhibitory compounds on tumor cell line clonogenic survival; assay type: cell-based; conditions: compound exposure 12 to 48 h with DNA-damaging second agent; compared to control group having no compound
Method: Typically 3 to 300 cells from an established tumor line were plated per cm^2 in petri dishes in the appropriate growth medium at 37° C. Cells were exposed to compounds dissolved in the growth medium from appropriately formulated stock solutions for times ranging from 12 to 48 h. During the course of compound exposure the cells were treated with a second agent with DNA-damaging capabilities, such as ionizing radiation or certain chemotherapeutic compounds. After this treatment regimen cells were incubated in growth medium containing no compound for a period of 7 to 14 days. At that time the cells were fixed with methanol and stained with 0.25% crystal violet. The number of colonies of cells exceeding 50 cells was determined for each treatment, and this number was used to calculate the effect of compounds on the survival of cells.

[2] = tested on: tumor cells from an established tumor cell line; assay: Effect of Cds1 inhibitors on tumor growth in murine xenograft models; assay type: in vivo; conditions: xenograft in athymic nu/nu mice, compound plus local irradiation
Method: Effect of Cds1 Inhibitors on Tumor Growth in Murine Xenograft Models
One×10^6 to ten×10^6 tumor cells from an established tumor cell line are injected in the hind limbs of athymic nu/nu mice. Tumors are allowed to grow until they reach 30-100 mm^3. At that time mice are randomized into different treatment groups, and compound or vehicle is administered by injection or oral gavage. […] After this treatment tumor growth rate is followed by measurement of tumor size twice weekly in three orthogonal directions, which is used to calculate the tumor volume.

[3] = tested on: spleen B cells; assay: Radiation-induced apoptosis in isolated primary cells (Annexin V staining); assay type: cell-based, C57/BL6 mice; conditions: isolated C57/BL6 spleen cells, 0.5-1 Gy 137Cs γ-radiation, Annexin V/propidium iodide FACS 6-24 h after irradiation
Method: Determination of the Effect of Cds1 Inhibitory Compounds on Radiation-Induced Apoptosis in Isolated Primary Cells
Spleen cells were isolated from C57/BL6 mice as follows: Spleens were disrupted by grinding between two frosted glass slides, and cells were passed through a cell strainer. Erythrocytes were lysed by incubation in ammonium chloride solution followed by careful washing of cells in isotonic medium. The spleen cells were plated in 60 mm petri dishes at 5×10^6 cells/mL in RPMI medium containing 10% fetal calf serum and Cds1 inhibitor. […] Determination of apoptotic cells by Annexin V staining was performed using the Annexin V-FITC Apoptosis Detection Kit™ (Cat# PF032 Oncogene Research Products) according to the manufacturer's instructions. Briefly, 6-24 h after irradiation, the cells were washed with buffered isotonic salt solution and suspended at 1×10^6 cells/mL in binding buffer (10 mM Hepes pH 7.4, 150 mM NaCl, 2.5 mM CaCl2, 1 mM MgCl2, 4% bovine serum albumin) containing 80 ng/mL Annexin V labelled with FITC and 0.4 μg/mL anti-B220 antibody labelled with allophycocyanin. The cells were then pelleted and resuspended in binding buffer containing 0.6 μg/mL propidium iodide. The stained cells were analyzed on a FACS machine (Fluorescence Activated Cell Sorter™, Becton Dickinson). […] Fraction of non-apoptotic B-cells or total cells were determined separately based on staining with the B220 antibody mentioned above.

[4] = tested on: spleen cells; assay: Radiation-induced apoptosis in splenocytes in vivo; conditions: female C57/BL mice, 4Gy whole-animal γ-radiation, compared to animals dosed with vehicle alone
Method: Determination of the Effect of Cds1 Inhibitory Compounds on Radiation-Induced Apoptosis in Splenocytes in vivo
Female C57/BL mice, 6-8 weeks of age, were dosed by oral gavage or by injection with Cds1 inhibitory compound before and at regular intervals after radiation exposure. One to three hours after first compound dose, the animals were irradiated with γ-rays administered to the whole animal at a dose between 0.5 and 4 Gy. At times between 4 and 24 h after irradiation, the animals were sacrificed, and the tissues of interest were excised. […] Briefly, cells or tissues are fixed with formaldehyde and permeabilized with ethanol, and DNA ends are then labelled by attaching nucleotide derivatives such as BrdUTP using the enzyme terminal deoxynucleotidyl transferase. DNA ends can then be detected by incubating the cells or tissues with fluorescently-labelled antibodies reactive with BrdU. Quantification can be done by laser scanning cytometry, by visual microscopical examination or by FACS.

SMILES | protection of spleen B cells from radiation-induced apoptosis [3] | other results
NC(=O)c1ccc2[nH]c(-c3ccc(Oc4ccc(Cl)cc4)cc3)nc2c1 [Example 1, 2-[4-(4-Chloro-phenoxy)-phenyl]-1H-benzoimidazole-5-carboxylic acid amide] | protected spleen B cells from radiation-induced apoptosis | number of colonies of cells (clonogenic survival) [1]: decrease in the number of colonies of cells; tumor growth rate (tumor volume) [2]: inconclusive; protection of spleen cells from apoptosis [4]: protection of spleen cells from apoptosis was observed
NC(=O)c1ccc2[nH]c(-c3ccc(Oc4ccc5ccccc5c4)cc3)nc2c1 [Example 9, 2-[4-(2-Naphthyloxy)-phenyl]-1H-benzoimidazole-5-carboxylic acid amide] | protected spleen B cells from radiation-induced apoptosis | –
NC(=O)c1ccc2[nH]c(-c3ccc(Oc4ccc(Br)cc4)cc3)nc2c1 [Example 11, 2-[4-(4-Bromo-phenoxy)-phenyl]-1H-benzoimidazole-5-carboxylic acid amide] | protected spleen B cells from radiation-induced apoptosis | –
NC(=O)c1ccc2[nH]c(-c3ccc(Sc4ccc(F)c(Cl)c4)cc3)nc2c1 [Example 38, 2-[4-(3-Chloro-4-fluoro-phenylsulfanyl)-phenyl]-1H-benzoimidazole-5-carboxylic acid amide] | protected spleen B cells from radiation-induced apoptosis | –
NC(=O)c1ccc2[nH]c(-c3ccc(Sc4ccc(Cl)cc4)nc3)nc2c1 [Example 42, 2-[6-(4-Chloro-phenylsulfanyl)-pyridin-3-yl]-1H-benzoimidazole-5-carboxylic acid amide] | protected spleen B cells from radiation-induced apoptosis | –
Cc1ccc(Sc2ccc(-c3nc4cc(C(N)=O)ccc4[nH]3)cn2)cc1 [Example 43, 2-[6-(4-Methyl-phenylsulfanyl)-pyridin-3-yl]-1H-benzoimidazole-5-carboxylic acid amide] | protected spleen B cells from radiation-induced apoptosis | –
NC(=O)c1ccc2[nH]c(-c3ccc(Oc4ccc5c(c4)OCO5)cc3)nc2c1 [Example 84, 2-[4-(Benzo[1,3]dioxol-5-yloxy)-phenyl]-1H-benzoimidazole-5-carboxylic acid amide] | protected spleen B cells from radiation-induced apoptosis | –
NC(=O)c1ccc2[nH]c(-c3ccc(Sc4ccc(O)cc4)cc3)nc2c1 [Example 87, 2-[4-(4-Hydroxy-phenylsulfanyl)-phenyl]-1H-benzoimidazole-5-carboxylic acid amide] | protected spleen B cells from radiation-induced apoptosis | –
NC(=O)c1ccc2[nH]c(-c3ccc(Oc4ccc(Br)c(O)c4)cc3)nc2c1 [Example 88, 2-[4-(4-Bromo-3-hydroxy-phenoxy)-phenyl]-1H-benzoimidazole-5-carboxylic acid amide] | protected spleen B cells from radiation-induced apoptosis | –
NS(=O)(=O)c1ccc2[nH]c(-c3ccc(Oc4ccc(Cl)cc4)cc3)nc2c1 [Example 94, 2-[4-(4-Chloro-phenoxy)-phenyl]-1H-benzoimidazole-5-sulfonic acid amide] | protected spleen B cells from radiation-induced apoptosis | –
NC(=O)c1ccc2[nH]c(-c3ccc(Oc4ccc(I)cc4)cc3)nc2c1 [Example 97, 2-[4-(4-Iodo-phenoxy)-phenyl]-1H-benzoimidazole-5-carboxylic acid amide] | protected spleen B cells from radiation-induced apoptosis | –
